Assay results: patent US20230085307A1, “PYRIDAZINONE COMPOUND AND HERBICIDE” (NISSAN CHEMICAL CORPORATION, priority 2019, published 2023)

How the values were obtained:
green foxtail [1] = test: Test Example 4: herbicidal effect by soil treatment (Table 19, symbol G); format: in vivo, green foxtail (Setaria viridis); conditions: amount of applied herbicide 320 g/ha
Outline: (§1)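 Emulsion of test compound, water-diluted to predetermined amount, sprayed on soil after sowing (seed depth ~1.5 cm, sterilized diluvial soil). Greenhouse, 25–30° C. Effect graded at three weeks post-spray.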

velvetleaf [2] = test: Test Example 4: herbicidal effect by soil treatment (Table 19, symbol M); format: in vivo, velvetleaf (Abutilon theophrasti); conditions: amount of applied herbicide 320 g/ha
Outline: as §1

blackgrass [3] = test: Test Example 5: herbicidal effect by foliage application, plastic box (Table 20, symbol J); format: in vivo, blackgrass (Alopecurus myosuroides); conditions: amount of applied herbicide 320 g/ha; foliage application after 14-day growth; evaluated three weeks after application
Outline: (§2)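 Post-emergence foliar test in sterilized diluvial soil. Compound applied as water-diluted emulsion at a predetermined rate to 14-day-old plants; evaluation at three weeks.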

barnyard grass [4] = test: Test Example 3: herbicidal effect by foliage application, Wagner pot (Table 18, symbol H); format: in vivo, barnyard grass (Echinochloa crus-galli); conditions: 320 g/ha
Outline: (§3)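 Plants were sown in alluvial soil held under 0.1–0.5 cm standing water and grown 14 days in a greenhouse at 25–30 °C. An emulsifiable formulation, water-diluted to the set dose, was then sprayed onto the foliage, and effects were scored three weeks later using previously defined criteria.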

persian speedwell [5] = test: Test Example 4: herbicidal effect by soil treatment (Table 19, symbol R); format: in vivo, Persian speedwell (Veronica persica); conditions: amount of applied herbicide 320 g/ha
Outline: as §1

lambsquarters [6] = test: Test Example 4: herbicidal effect by soil treatment (Table 19, symbol O); format: in vivo, lambsquarters (Chenopodium album); conditions: amount of applied herbicide 320 g/ha
Outline: as §1

windgrass [7] = test: Test Example 5: herbicidal effect by foliage application, plastic box (Table 20, symbol L); format: in vivo, windgrass (Apera spica-venti); conditions: amount of applied herbicide 320 g/ha; foliage application after 14-day growth; evaluated three weeks after application
Outline: as §2

green foxtail [8] = test: Test Example 5: herbicidal effect by foliage application, plastic box (Table 20, symbol G); format: in vivo, green foxtail (Setaria viridis); conditions: amount of applied herbicide 320 g/ha; foliage application after 14-day growth; evaluated three weeks after application
Outline: as §2

Chinese sprangletop = test: Test Example 3: herbicidal effect by foliage application, Wagner pot (Table 18, symbol D); format: in vivo, chinese sprangletop (Leptochloa chinensis); conditions: 320 g/ha
Outline: as §3

chickweed [9] = test: Test Example 5: herbicidal effect by foliage application, plastic box (Table 20, symbol P); format: in vivo, common chickweed (Stellaria media); conditions: amount of applied herbicide 320 g/ha; foliage application after 14-day growth; evaluated three weeks after application
Outline: as §2

windgrass [10] = test: Test Example 4: herbicidal effect by soil treatment (Table 19, symbol L); format: in vivo, windgrass (Apera spica-venti); conditions: amount of applied herbicide 320 g/ha
Outline: as §1

wild oat [11] = test: Test Example 4: herbicidal effect by soil treatment (Table 19, symbol I); format: in vivo, wild oat (Avena fatua); conditions: amount of applied herbicide 320 g/ha
Outline: as §1

wild oat [12] = test: Test Example 5: herbicidal effect by foliage application, plastic box (Table 20, symbol I); format: in vivo, wild oat (Avena fatua); conditions: amount of applied herbicide 320 g/ha; foliage application after 14-day growth; evaluated three weeks after application
Outline: as §2

chickweed [13] = test: Test Example 4: herbicidal effect by soil treatment (Table 19, symbol P); format: in vivo, common chickweed (Stellaria media); conditions: amount of applied herbicide 320 g/ha
Outline: as §1

barnyard grass [14] = test: Test Example 4: herbicidal effect by soil treatment (Table 19, symbol H); format: in vivo, barnyard grass (Echinochloa crus-galli); conditions: amount of applied herbicide 320 g/ha
Outline: as §1

rice flat sedge = test: Test Example 3: herbicidal effect by foliage application, Wagner pot (Table 18, symbol E); format: in vivo, rice flat sedge (Cyperus iria); conditions: 320 g/ha
Outline: as §3

redroot pigweed [15] = test: Test Example 5: herbicidal effect by foliage application, plastic box (Table 20, symbol N); format: in vivo, redroot pigweed (Amaranthus retroflexus); conditions: amount of applied herbicide 320 g/ha; foliage application after 14-day growth; evaluated three weeks after application
Outline: as §2

blackgrass [16] = test: Test Example 4: herbicidal effect by soil treatment (Table 19, symbol J); format: in vivo, blackgrass (Alopecurus myosuroides); conditions: amount of applied herbicide 320 g/ha
Outline: as §1

velvetleaf [17] = test: Test Example 5: herbicidal effect by foliage application, plastic box (Table 20, symbol M); format: in vivo, velvetleaf (Abutilon theophrasti); conditions: amount of applied herbicide 320 g/ha; foliage application after 14-day growth; evaluated three weeks after application
Outline: as §2

Italian ryegrass [18] = test: Test Example 5: herbicidal effect by foliage application, plastic box (Table 20, symbol K); format: in vivo, Italian ryegrass (Lolium multiflorum); conditions: amount of applied herbicide 320 g/ha; foliage application after 14-day growth; evaluated three weeks after application
Outline: as §2

persian speedwell [19] = test: Test Example 5: herbicidal effect by foliage application, plastic box (Table 20, symbol R); format: in vivo, Persian speedwell (Veronica persica); conditions: amount of applied herbicide 320 g/ha; foliage application after 14-day growth; evaluated three weeks after application
Outline: as §2

barnyard grass [20] = test: Test Example 5: herbicidal effect by foliage application, plastic box (Table 20, symbol H); format: in vivo, barnyard grass (Echinochloa crus-galli); conditions: amount of applied herbicide 320 g/ha; foliage application after 14-day growth; evaluated three weeks after application
Outline: as §2

lambsquarters [21] = test: Test Example 5: herbicidal effect by foliage application, plastic box (Table 20, symbol O); format: in vivo, lambsquarters (Chenopodium album); conditions: amount of applied herbicide 320 g/ha; foliage application after 14-day growth; evaluated three weeks after application
Outline: as §2

redroot pigweed [22] = test: Test Example 4: herbicidal effect by soil treatment (Table 19, symbol N); format: in vivo, redroot pigweed (Amaranthus retroflexus); conditions: amount of applied herbicide 320 g/ha
Outline: as §1

southern crabgrass [23] = test: Test Example 5: herbicidal effect by foliage application, plastic box (Table 20, symbol F); format: in vivo, southern crabgrass (Digitaria ciliaris); conditions: amount of applied herbicide 320 g/ha; foliage application after 14-day growth; evaluated three weeks after application
Outline: as §2

southern crabgrass [24] = test: Test Example 4: herbicidal effect by soil treatment (Table 19, symbol F); format: in vivo, southern crabgrass (Digitaria ciliaris); conditions: amount of applied herbicide 320 g/ha
Outline: as §1

Italian ryegrass [25] = test: Test Example 4: herbicidal effect by soil treatment (Table 19, symbol K); format: in vivo, Italian ryegrass (Lolium multiflorum); conditions: amount of applied herbicide 320 g/ha
Outline: as §1

With CSc1ccc(-c2sc3c(Cl)cccc3c2-c2c(O)c(C)nn(C)c2=O)cc1 [4-088] the “Herbicidal effect by soil treatment, G: green foxtail” value (green foxtail [1]) was 0 (Herbicidal rate of 5% or less (almost no effect)), the “Herbicidal effect by soil treatment, M: velvetleaf” value (velvetleaf [2]) was 0 (Herbicidal rate of 5% or less (almost no effect)) and the “Herbicidal effect by foliage application, J: blackgrass” value (blackgrass [3]) was 2 (Herbicidal rate of 20% or more and less than 40%). For the same compound, the “herbicidal effect on barnyard grass (H)” value (barnyard grass [4]) was 5 (Herbicidal rate of 90% or more (almost completely withered)), the “Herbicidal effect by soil treatment, R: persian speedwell” value (persian speedwell [5]) was 3 (Herbicidal rate of 40% or more and less than 70%) and the “Herbicidal effect by soil treatment, O: lambsquarters” value (lambsquarters [6]) was 4 (Herbicidal rate of 70% or more and less than 90%). For the same compound, the “Herbicidal effect by foliage application, L: windgrass” value (windgrass [7]) was 5 (Herbicidal rate of 90% or more (almost completely withered)), the “Herbicidal effect by foliage application, G: green foxtail” value (green foxtail [8]) was 2 (Herbicidal rate of 20% or more and less than 40%) and the “herbicidal effect on Chinese sprangletop (D)” value (Chinese sprangletop) was 3 (Herbicidal rate of 40% or more and less than 70%). For the same compound, the “Herbicidal effect by foliage application, P: chickweed” value (chickweed [9]) was 5 (Herbicidal rate of 90% or more (almost completely withered)), the “Herbicidal effect by soil treatment, L: windgrass” value (windgrass [10]) was 0 (Herbicidal rate of 5% or less (almost no effect)) and the “Herbicidal effect by soil treatment, I: wild oat” value (wild oat [11]) was 0 (Herbicidal rate of 5% or less (almost no effect)). For the same compound, the “Herbicidal effect by foliage application, I: wild oat” value (wild oat [12]) was 4 (Herbicidal rate of 70% or more and less than 90%), the “Herbicidal effect by soil treatment, P: chickweed” value (chickweed [13]) was 0 (Herbicidal rate of 5% or less (almost no effect)) and the “Herbicidal effect by soil treatment, H: barnyard grass” value (barnyard grass [14]) was 0 (Herbicidal rate of 5% or less (almost no effect)). The “herbicidal effect on rice flat sedge (E)” value (rice flat sedge) was 5 (Herbicidal rate of 90% or more (almost completely withered)), the “Herbicidal effect by foliage application, N: redroot pigweed” value (redroot pigweed [15]) was 5 (Herbicidal rate of 90% or more (almost completely withered)) and the “Herbicidal effect by soil treatment, J: blackgrass” value (blackgrass [16]) was 0 (Herbicidal rate of 5% or less (almost no effect)). The “Herbicidal effect by foliage application, M: velvetleaf” value (velvetleaf [17]) was 5 (Herbicidal rate of 90% or more (almost completely withered)), the “Herbicidal effect by foliage application, K: Italian ryegrass” value (Italian ryegrass [18]) was 4 (Herbicidal rate of 70% or more and less than 90%) and the “Herbicidal effect by foliage application, R: persian speedwell” value (persian speedwell [19]) was 5 (Herbicidal rate of 90% or more (almost completely withered)). For the same compound, the “Herbicidal effect by foliage application, H: barnyard grass” value (barnyard grass [20]) was 3 (Herbicidal rate of 40% or more and less than 70%), the “Herbicidal effect by foliage application, O: lambsquarters” value (lambsquarters [21]) was 5 (Herbicidal rate of 90% or more (almost completely withered)) and the “Herbicidal effect by soil treatment, N: redroot pigweed” value (redroot pigweed [22]) was 5 (Herbicidal rate of 90% or more (almost completely withered)). The “Herbicidal effect by foliage application, F: southern crabgrass” value (southern crabgrass [23]) was 0 (Herbicidal rate of 5% or less (almost no effect)), the “Herbicidal effect by soil treatment, F: southern crabgrass” value (southern crabgrass [24]) was 0 (Herbicidal rate of 5% or less (almost no effect)) and the “Herbicidal effect by soil treatment, K: Italian ryegrass” value (Italian ryegrass [25]) was 3 (Herbicidal rate of 40% or more and less than 70%).

In the case of CCSc1ccc(-c2sc3c(Cl)cccc3c2-c2c(O)c(C)nn(C)c2=O)cc1 [4-094], the “Herbicidal effect by soil treatment, G: green foxtail” value (green foxtail [1]) is reported as 0 (Herbicidal rate of 5% or less (almost no effect)), the “Herbicidal effect by soil treatment, M: velvetleaf” value (velvetleaf [2]) is reported as 0 (Herbicidal rate of 5% or less (almost no effect)) and the “Herbicidal effect by foliage application, J: blackgrass” value (blackgrass [3]) is reported as 5 (Herbicidal rate of 90% or more (almost completely withered)). For the same compound, the “herbicidal effect on barnyard grass (H)” value (barnyard grass [4]) was 5 (Herbicidal rate of 90% or more (almost completely withered)), the “Herbicidal effect by soil treatment, R: persian speedwell” value (persian speedwell [5]) was 3 (Herbicidal rate of 40% or more and less than 70%) and the “Herbicidal effect by soil treatment, O: lambsquarters” value (lambsquarters [6]) was 3 (Herbicidal rate of 40% or more and less than 70%). The “Herbicidal effect by foliage application, L: windgrass” value (windgrass [7]) was 5 (Herbicidal rate of 90% or more (almost completely withered)), the “Herbicidal effect by foliage application, G: green foxtail” value (green foxtail [8]) was 4 (Herbicidal rate of 70% or more and less than 90%) and the “herbicidal effect on Chinese sprangletop (D)” value (Chinese sprangletop) was 4 (Herbicidal rate of 70% or more and less than 90%). The “Herbicidal effect by foliage application, P: chickweed” value (chickweed [9]) was 5 (Herbicidal rate of 90% or more (almost completely withered)), the “Herbicidal effect by soil treatment, L: windgrass” value (windgrass [10]) was 0 (Herbicidal rate of 5% or less (almost no effect)) and the “Herbicidal effect by soil treatment, I: wild oat” value (wild oat [11]) was 0 (Herbicidal rate of 5% or less (almost no effect)). For the same compound, the “Herbicidal effect by foliage application, I: wild oat” value (wild oat [12]) was 4 (Herbicidal rate of 70% or more and less than 90%), the “Herbicidal effect by soil treatment, P: chickweed” value (chickweed [13]) was 0 (Herbicidal rate of 5% or less (almost no effect)) and the “Herbicidal effect by soil treatment, H: barnyard grass” value (barnyard grass [14]) was 0 (Herbicidal rate of 5% or less (almost no effect)). The “herbicidal effect on rice flat sedge (E)” value (rice flat sedge) was 4 (Herbicidal rate of 70% or more and less than 90%), the “Herbicidal effect by foliage application, N: redroot pigweed” value (redroot pigweed [15]) was 5 (Herbicidal rate of 90% or more (almost completely withered)) and the “Herbicidal effect by soil treatment, J: blackgrass” value (blackgrass [16]) was 0 (Herbicidal rate of 5% or less (almost no effect)). For the same compound, the “Herbicidal effect by foliage application, M: velvetleaf” value (velvetleaf [17]) was 4 (Herbicidal rate of 70% or more and less than 90%), the “Herbicidal effect by foliage application, K: Italian ryegrass” value (Italian ryegrass [18]) was 4 (Herbicidal rate of 70% or more and less than 90%) and the “Herbicidal effect by foliage application, R: persian speedwell” value (persian speedwell [19]) was 5 (Herbicidal rate of 90% or more (almost completely withered)). For the same compound, the “Herbicidal effect by foliage application, H: barnyard grass” value (barnyard grass [20]) was 3 (Herbicidal rate of 40% or more and less than 70%), the “Herbicidal effect by foliage application, O: lambsquarters” value (lambsquarters [21]) was 5 (Herbicidal rate of 90% or more (almost completely withered)) and the “Herbicidal effect by soil treatment, N: redroot pigweed” value (redroot pigweed [22]) was 5 (Herbicidal rate of 90% or more (almost completely withered)). For the same compound, the “Herbicidal effect by foliage application, F: southern crabgrass” value (southern crabgrass [23]) was 0 (Herbicidal rate of 5% or less (almost no effect)), the “Herbicidal effect by soil treatment, F: southern crabgrass” value (southern crabgrass [24]) was 0 (Herbicidal rate of 5% or less (almost no effect)) and the “Herbicidal effect by soil treatment, K: Italian ryegrass” value (Italian ryegrass [25]) was 2 (Herbicidal rate of 20% or more and less than 40%).
